We go through three compounds from patent publication US9586967B2, “Pyrrolo pyrimidine derivative” (ONO PHARMACEUTICAL CO., LTD., priority 2013, dated 2017).

Test [1] has as its target T1, Axl enzyme (Homo sapiens, UniProt P30530).
T1 sequence (P30530 26-894): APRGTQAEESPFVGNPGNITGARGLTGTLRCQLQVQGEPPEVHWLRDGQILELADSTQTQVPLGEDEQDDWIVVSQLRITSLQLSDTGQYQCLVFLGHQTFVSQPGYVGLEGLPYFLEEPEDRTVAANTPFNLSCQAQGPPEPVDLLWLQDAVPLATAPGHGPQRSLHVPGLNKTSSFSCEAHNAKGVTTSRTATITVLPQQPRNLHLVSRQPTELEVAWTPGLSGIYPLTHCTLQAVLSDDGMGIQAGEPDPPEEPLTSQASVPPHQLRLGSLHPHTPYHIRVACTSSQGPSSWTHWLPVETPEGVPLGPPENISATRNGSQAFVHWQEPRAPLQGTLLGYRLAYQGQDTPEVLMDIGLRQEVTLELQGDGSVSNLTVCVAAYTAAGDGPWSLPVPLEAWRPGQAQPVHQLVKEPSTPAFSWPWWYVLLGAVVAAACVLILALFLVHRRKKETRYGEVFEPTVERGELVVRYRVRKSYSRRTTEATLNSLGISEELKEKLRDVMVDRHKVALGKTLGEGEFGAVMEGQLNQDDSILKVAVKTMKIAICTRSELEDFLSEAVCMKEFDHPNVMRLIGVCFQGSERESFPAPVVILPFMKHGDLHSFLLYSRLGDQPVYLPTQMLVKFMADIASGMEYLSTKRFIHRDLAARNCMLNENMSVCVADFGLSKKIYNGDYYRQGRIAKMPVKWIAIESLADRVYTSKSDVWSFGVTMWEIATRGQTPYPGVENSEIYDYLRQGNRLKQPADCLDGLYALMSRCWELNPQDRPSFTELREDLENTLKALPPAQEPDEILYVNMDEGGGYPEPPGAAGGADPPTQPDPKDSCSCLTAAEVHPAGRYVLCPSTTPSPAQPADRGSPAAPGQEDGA
Nature of the test: Measurement of Axl inhibitory activity (in vitro test, LanthaScreen TR-FRET). Type of test: biochemical. The conditions noted are these: Fluorescein-Poly GT substrate, ATP, read-out: Axl enzyme inhibitory activity, value of 50% inhibition rate (IC50 value). The protocol:
Measurement of Axl Inhibitory Activity (In Vitro Test)
The Axl enzyme inhibitory activity was measured by using LanthaScreen (registered trademark) system (Invitrogen) based on the attached instruction. The reagents used are shown below.
Reaction buffer solution: A solution containing 50 mmol/L HEPES (pH7.5), 0.01% Brij35, 10 mmol/L MgCl2 and 1 mmol/L EGTA was prepared by using purified water.
Test substance solution: A solution containing a test compound of 5-fold concentration with respect to the final concentration was prepared by 20-fold diluting a DMSO solution of the test compound of each concentration with the reaction buffer solution.
Enzyme solution: A solution containing 400 ng/mL Axl enzyme was prepared by using the reaction buffer solution.
Substrate solution: A solution containing 45 μmmol/L ATP and 500 nmmol/L Fluorescein-Poly GT (Invitrogen) was prepared by using the reaction buffer solution.
Detection solution: A solution containing 20 mM EDTA and 4 nM PY20 (Invitrogen) was prepared by using Dilution B (Invitrogen).
A 10 mmol/L DMSO solution of the test compound was dispensed into a 96-well plate (Nunc), and, furthermore, a 3-fold dilution series was prepared using DMSO. In each well of the 96-well plate for measurement, 5 μL each of the reaction buffer solution containing DMSO was added to a Blank group and a medium group, and 5 μL of the test substance solution was added to the test substance group, respectively. […] After standing still, fluorescence intensity at 520 nm and 495 nm at the time of irradiation with exciting light of 340 nm was measured by using Analyst GT (Molecular Devices). The phosphorylation of the artificial substrate was quantified by Time-resolved Fluorescence Resonance Energy Transfer (TR-FRET). The TR-FRET ratio was calculated by dividing 520 nm fluorescence signal by 495 nm fluorescence signal for each well, and the inhibition rate (%) in the test compound group was calculated based on the following mathematical formula. […]
For orientation: TR-FRET usually uses a lanthanide donor and a delayed reading to cut background.

In test [2] the test system is Ba/F3 Axl. Briefly: Measurement of proliferation suppression rate using mouse pro-B cell line (Ba/F3 Axl) stably expressing Axl. Type of test: cell-based. Conditions: BaF3, Ba/F3 Axl cells, 48 hours, CELLTITER-GLO, read-out: Proliferation suppression, value of 50% inhibition rate (IC50 value). Here is the method:
Measurement of Proliferation Suppression Rate by Using Mouse Pro-B Cell Line (Ba/F3 Axl) Stably Expressing Axl
A 0.1 mmol/L DMSO solution of the test compound was dispensed into a 96-well plate, and further a 3-fold dilution series was prepared using DMSO. DMSO solutions of test compounds, having various concentrations, were further 500-fold diluted with a RPMI1640 medium (containing 10% HI-FBS and 1% penicillin) and a diluted solution of the test compound having […] with respect to the final concentration was prepared. In each well of the 96-well plate (BD Biosciences) for measurement, 50 μL of a RPMI medium was added to the Blank group, 50 μL of a RPMI medium containing 0.2% DMSO was added to the medium group, and 50 μL of the diluted solution of the test compound was added to the test compound group, respectively. Ba/F3 Axl was diluted with a medium to have a density of 2×10^5 cells/mL to prepare a cell suspension. In each well of the 96-well plate for measurement, 50 μL each of the RPMI medium was added to the Blank group, and 50 μL each of the cell suspension was added to the medium group and the test compound group, respectively, and the groups were stood still at 37° C. at 5% CO2 for 48 hours. After standing still, Relative Light Unit (RLU) was measured by using CELLTITER-GLO (registered trademark) LUMINESCENT CELL VIABILITY ASSAY (Promega). The measurement was carried out according to the attached instruction. To each well, 100 μL each of light-emitting solution was added. The plate was stirred at room temperature for 3 min and then stood still at room temperature with light shielded for 10 minutes, and RLU was measured by using Microplate Reader (SpectraMax M5e, Molecular Devices). The average values of RLU of the Blank group and the medium group were respectively calculated, and the proliferation suppression rate of the test compound group was calculated. Proliferation suppression rate (%)={1−(RLU of test compound group−A)/(B−A)}×100 [Math. 2] A: Average value of RLU of Blank group B: Average value of RLU of medium group […]
(In ATP-based viability assays light output follows the ATP content of the culture.)

Structures can show the parent of a compound that is named as a salt.

As for `CC#CC(=O)NCc1ccc(C(=O)Nc2ccc(-c3cn(C)c4ncnc(N)c34)cc2)c(=O)n1-c1ccccc1` [Example 26, N-[4-(4-amino-7-methyl-7H-pyrrolo[2,3-d]pyrimidine-5-yl)phenyl]-6-[(2-butynoylamino)methyl]-2-oxo-1-phenyl-1,2-dihydro-3-pyridinecarboxamide], the IC50 in test [1] is 1.7 nM; in test [2] it was 0.8 nM.

For `Cn1cc(-c2ccc(NC(=O)c3cc(C(F)(F)F)cn(-c4ccccc4)c3=O)cc2)c2c(N)ncnc21` [Example 30, N-[4-(4-amino-7-methyl-7H-pyrrolo[2,3-d]pyrimidin-5-yl)phenyl]-2-oxo-1-phenyl-5-(trifluoromethyl)-1,2-dihydro-3-pyridinecarboxamide trifluoroacetate], the IC50 in test [1] was determined as 8 nM; in test [2] it was 10.6 nM.

`Cn1cc(-c2ccc(NC(=O)c3cc4c(n(-c5ccccc5)c3=O)CC3(CC3)CC4=O)nc2)c2c(N)ncnc21` [Example 45(24), N-[5-(4-amino-7-methyl-7H-pyrrolo[2,3-d]pyrimidin-5-yl)-2-pyridinyl]-2′,5′-dioxo-1′-phenyl-2′,5′,6′,8′-tetrahydro-1′H-spiro[cyclopropane-1,7′-quinoline]-3′-carboxamide]: the IC50 in test [1] worked out at 9.7 nM; in test [2] it was 7 nM.
